# Values quoted from earlier work, collected in US10624856B2, “Non-extractable oral solid dosage forms” (Dharma Laboratories LLC, priority 2018, dated 2020).
# Key:
# [1] = in vivo
smiles,measurement,setting,value
C=CCN1CC[C@]23c4c5ccc(O)c4O[C@H]2C(=O)CC[C@@]3(O)[C@H]1C5 [Naloxone],oral bioavailability (in words),[1]; po,low
O=C1CC[C@@]2(O)[C@H]3Cc4ccc(O)c5c4[C@@]2(CCN3CC2CC2)[C@H]1O5 [Naltrexone],Plasma protein binding,,21%
Oc1ccc2c3c1O[C@H]1[C@H](O)CC[C@@]4(O)[C@@H](C2)N(CC2CC2)CC[C@]314 [6-beta-naltrexol],half-life,[1],16 h
